The assay relates to Costello (CS) zebrafish injected with HRASV12 plasmid. In words: Phenotype analysis (survival, developmental defects) of Costello zebrafish embryos. Type of assay: in vivo, Zebrafish (Danio rerio). Conditions: HRASG12V-embryos; for survival rate: single agent 20 μM by bathing 1 dpf to 5 dpf, 4 days of treatment; for number of defective individuals among alive embryo: single agent 20 μM, vehicle (DMSO) 60%.

Procedure: Zebrafish (Danio rerio) embryos were obtained from natural spawnings and raised in embryo medium (E3) (97) at 28.5° C. Embryos were staged as described previously [46]. Starting 5 days post-fertilisation (dpf), embryos were fed daily. […] 1 nl of 12.5 ng/μl of GFP-H-RASV12 plasmid and 12.5 ng/μl of T2 transposase mRNA were co-injected in the first cell of zebrafish eggs. Control embryos were injected with the same volume of PBS. H-RASV12 was expressed in zebrafish embryo under heat shock, 30 mn at 37° C. at 1 day post fertilization (dpf) and embryo expressing GFP at 2 dpf were selected for the study.
The embryo injected with the HRASV12 plasmid were treated daily by bathing from 1 dpf to 5 dpf with respectively 20 μM bezafibrate, 20 μM urolithin A, 20 μM bezafibrate+20 μM urolithin A, 10 μM bezafibrate+5 μM urolithin A, 5 μM bezafibrate+5 μM urolithin A. Control embryos were treated with the same volume of DMSO corresponding to 0.2% of DMSO. The imaging and phenotype analysis of mortality and defects of appearance after plasmid injection were performed on alive embryo anesthetized using ethyl 3-aminobenzoate methanesulfonate, MS-222 (Sigma, Cat. #A-5040) at 200 mg/L at 2 days post fertilization, 3 dpf, 4 dpf and 5 dpf using a ZEISS axiocam stereomicroscope (ZEISS, Germany).
Embryos injected with HRASV12 plasmid were selected at 2 days post fertilization (dpf) following their GFP^+/+ expression. HRASV12 plasmid was activated under a heat shock of embryos at 37° C. for 30 minutes. Embryos were observed daily from 2 dpf to 5 dpf in order to analyze the effect of HRASV12 overexpression on their physiological development (FIG. 1A, 1B).

As to `O=c1oc2cc(O)ccc2c2ccc(O)cc12` [urolithin A], the survival rate is reported as no more than 65% and the “number of defective individuals among alive embryo” value is listed as 43%.
Turning to `CC(C)(Oc1ccc(CCNC(=O)c2ccc(Cl)cc2)cc1)C(=O)O` [bezafibrate, 2-(4-{2-[(4-chlorobenzoyl)amino]ethyl}phenoxy)-2-methylpropanoic acid], the survival rate entry was “up to 70%” and the “number of defective individuals among alive embryo” value is recorded as 45%.
